The record followed here is ChEMBL document CHEMBL1131269, “Enhancing effects of a mono-bromo substitution at the para position of the phenyl moiety on the metabolism and anti-HIV activity of d4T-phenyl methoxyalaninyl phosphate derivatives” (Bioorg Med Chem Lett, 1998).

Structures are written as SMILES. A value given as a limit tells only on which side of the number the result lay.

Settings in all cases: Homo sapiens
The subject of test [1] is CCRF-CEM. Kind of test: Compound was tested for anti-HIV activity in TK-deficient CEM cells by inhibition of reverse transcriptase activity. It is filed as functional, cell-based.
Test [2] relates to CCRF-CEM. The experiment in a line: Compound was tested for anti-HIV activity in TK-deficient CEM cells by microculture tetrazolium assay. It is filed as functional, cell-based.
The test system of test [3] is CCRF-CEM. The experiment in a line: Compound was tested for anti-HIV activity in TK-deficient CEM cells by p24 production assay. It is filed as functional, cell-based.
The nature of test [4]: Compound was tested for anti-HIV activity in normal peripheral blood mononuclear cells by microculture tetrazolium assay. Type of test: functional.
A short description of test [5]: Compound was tested for anti-HIV activity in normal peripheral blood mononuclear cells by inhibition of reverse transcriptase activity. Type of test: functional.
Test [6] can be described thus: Compound was tested for anti-HIV activity in normal peripheral blood mononuclear cells infected with HIV-1(RTMDR-1) virus by inhibition of reverse transcriptase activity. Type of test: functional.
A short description of test [7]: Compound was tested for anti-HIV activity in normal peripheral blood mononuclear cells infected with HIV-2 virus by inhibition of reverse transcriptase activity. Type of test: functional.
Test [8] can be described thus: Compound was tested for anti-HIV activity in normal peripheral blood mononuclear cells by p24 production assay. Type of test: functional.

Consider `COC(=O)C(C)NP(=O)(OC[C@@H]1C=C[C@H](n2cc(C)c(=O)[nH]c2=O)O1)Oc1ccccc1` (some centres not stated), for which the IC50 was 100 nM with CCRF-CEM [1], more than 10000 nM in the test with CCRF-CEM [2], 100 nM in the test with CCRF-CEM [3] and more than 10000 nM in test [4].

On to `COC(=O)C(C)NP(=O)(OC[C@H]1O[C@@H](n2cc(C)c(=O)[nH]c2=O)C[C@@H]1N=[N+]=[N-])Oc1ccc(Br)cc1` (some centres not stated), for which the concentration for half-maximal inhibition (IC50) with CCRF-CEM [1] was 40 nM; in the test with CCRF-CEM [2], more than 10000 nM; in test [5], 4 nM; in test [4], more than 10000 nM; in test [6], 1500 nM; in test [7] it was 3900 nM.

`COC(=O)C(C)NP(=O)(OC[C@@H]1C=C[C@H](n2cc(C)c(=O)[nH]c2=O)O1)Oc1ccc(OC)cc1` (some centres not stated): the IC50 in the test on CCRF-CEM [1] was 300 nM; with CCRF-CEM [2] it was more than 10000 nM; with CCRF-CEM [3], 100 nM; in test [5] it was 30 nM; in test [4], more than 10000 nM; in test [8], 30 nM.

Regarding `Cc1cn([C@H]2C[C@H](N=[N+]=[N-])[C@@H](CO)O2)c(=O)[nH]c1=O` (single isomer, unassigned) [ZIDOVUDINE], the IC50 was found to be 2000 nM in test [6] and 2400 nM in test [7].

Consider `COC(=O)C(C)NP(=O)(OC[C@@H]1C=C[C@H](n2cc(C)c(=O)[nH]c2=O)O1)Oc1ccc(Br)cc1` (some centres not stated) [STAMPIDINE], for which the IC50 was 60 nM in the test with CCRF-CEM [1]; more than 10000 nM in the test with CCRF-CEM [2]; 40 nM with CCRF-CEM [3]; 40 nM in test [5]; more than 10000 nM in test [4]; 20 nM in test [8]. Moreover, the IC50 in test [6] is 20 nM; in test [7] it was 400 nM.

`Cc1cn([C@H]2C=C[C@@H](CO)O2)c(=O)[nH]c1=O` [STAVUDINE]: the IC50 in the test on CCRF-CEM [1] was 2400 nM; with CCRF-CEM [2] it was more than 10000 nM; in the test on CCRF-CEM [3] it was 600 nM; in test [5], 40 nM; in test [4], more than 10000 nM; in test [8], 20 nM.
